Measurements taken from patent EP2157088A1, “INDICYANINE DYES AND THE DERIVATIVES THEREOF FOR ANALYSING BIOLOGICAL MICROMOLECULES” (UCHREZHDENIE ROSSIISKOI AKADEMII NAUK INSTITUT …, priority 2007, dated 2008).

Key:
[1] = Quantum efficiency of fluorescence, measured versus a reference dye; type: physicochemical
Description: For all indodicarbocyanine dyes (I) (A1) - (A30) and (B1) - (B7) of the invention, there are determined the quantum efficiency of fluorescence in methanol and in aqueous phosphate buffered saline (Table 1, Fig. 3). The measurements are performed versus dyes of formula (I) (R1= -CH3, R2= R6= -SO3^-; R3= -(CH2)5COOH, R4= -C2H5, R5= -H) whose quantum efficiency of fluorescence in PBS is 0.27 (Mader O., K. Reider, H.-J. Egelhaaaf, R, Fischer, R. Brock, Structure Properties of Pentamethine Indocyanine Dyes: Identification of New Dyes for Life Science Applications. Bioconjugate Chem, 2004, vol. 15, pp. 70-78). In methanol, dyes (A10, A22, A25, A29, A30) have the upper-range of quantum efficiency of fluorescence (Φ ∼ 0.3), but in PBS, dyes (A10, A22, A25, A29, A30) have the maximal Φ -value.

[2] = type: physicochemical
Text: Subject to substituent at the heterocyclic moiety, dyes of formulae (A) and (B) proposed are distinguished by a spectral range of excitation and fluorescence, by the total electrical charge, and water solubility (Table 1).

[3] = Absorption and fluorescence maxima of the dyes; type: physicochemical
Text: An insertion of methyl group at 5- and 7-positions of indolenyne cycle produces a bathochromic shift in the absorption and fluorescent spectra. As to the rest sulfur containing dyes, the spectral characteristics thereof appear to be in the same range (between about λmax 648 nm and λem 669 nm) (Fig. 1),

[4] = Molar extinction coefficient in methanol and PBS; type: physicochemical; design: ε·10^-5: unit not given here
Description: For all indodicarbocyanine dyes (I) (A1) - (A30) and (B1) - (B7) of the invention, there are determined the molar extinction coefficients in methanol and in aqueous phosphate buffered saline (PBS) (10 mM potassium phosphate buffer, sodium chloride concentration is 0.9%, pH 7.4). In methanol, indodicarbocyanine (A1, A8, A10-A12, A17, A23) has the upper-range of molar extinction coefficient (ε >[…]). In aqueous phosphate buffered saline (PBS), dyes (A10, A23, A30) have the maximal ε-value (Fig. 2).

[5] = Relative efficiency of fluorescence / absolute sensitivity of label, normalized to dye A30 in PBS; type: physicochemical; details: for Sensitivity of record 635/ 670: excitation 635 nm, record 670 nm; for Sensitivity of record 655/ 690: excitation 655 nm, record 690 nm; for Sensitivity of record max/ max: excitation and record in absorption and fluorescence maxima, ε*Φ normalized to A30 in PBS
Text: The data obtained were as follows: • on excitation and record in absorption and fluorescence maxima, the relative efficiency of fluorescence exceeds 0.80 for dyes (A10), (A22), (A23), (A25), and (A30) in methanol and for dyes (A22), (A25), and (A30) in PBS (Table 1, Fig. 4), whereas for dyes of formula (I) (R1 = -CH3, R2= R6= -SO3^-; R3= -(CH2)5COOH, R4= -C2H5; R5= -H) the values are 0.69 in methanol and 0.67 in PBS; • on excitation at wavelength 655 nm and record at 690 nm, the relative efficiency of fluorescence exceeds 0.25 for dyes (A25) and (A30) in methanol and is higher than 0.18 for dyes (A24) and (A30) in PBS (Table 1, Fig. 5), whereas for dyes of formula (I) (R1 = -CH3, R2 = R6= -SO3^-; R3= -(CH2)5COOH, R4= -C2H5; R5= -H) the values are 0.18 in methanol and 0.11 in PBS; • on excitation at wavelength 635 nm and record at 670 nm, the relative efficiency of fluorescence exceeds 0.50 for dyes (A1), (A11), (A23) in methanol and is higher than 0.45 for dyes (A22), (A25), and (A30) in PBS (Table 1, Fig. 6), whereas for dyes of formula (I) (R1= -CH3, R2= R6= -SO3^-; R3= -(CH2)5COOH, R4= -C2H5; R5= -H) the values are 0.44 in methanol and 0.38 in PBS.
Term sensitivity of fluorescent analysis is defined by the absolute sensitivity of label that may be represented as the product of molar extinction coefficient by quantum efficiency of fluorescence (ε*Φ). Thus, there are determined the absolute sensitivity of indodicarbocyanines (A1-A30, B1-B7) in appropriate absorption and fluorescence maxima in methanol and in aqueous phosphate buffered saline. The values are normalized to the maximal value obtained for dye (A30) in PBS (Table 1). In methanol, dyes (A10, A22, A23, A25, A30) have the upper-range of absolute sensitivity, but in PBS, dyes (A10, A22, A25, A29, A30) have the maximal values of sensitivity (Fig. 4).
To determine the most appropriate dyes for instrument setting, there are measured the relative efficiency of fluorescence of dyes at wavelength of excitation and record of the instrument (655 nm. / 690 nm). The maximal values appear to be specific to dyes (A25) and (A30) in methanol, and to dyes (A19, A22, A25, A29, A30) in PBS (Table 1, Fig. 5).
There are also measured the relative efficiency of fluorescence at wavelength of excitation and record of the instrument (635 nm / 670 nm). The maximal values appear to be specific to dyes (A1, A10, A11, A23) in methanol, and to dyes (A10, A22, A25, A29, A30) in PBS (Table 1, Fig. 6).

[6] = PBS (10 mM potassium phosphate buffer, 0.9% sodium chloride, pH 7.4)

Molecule	Φ (quantum efficiency of fluorescence) ([1]; MeOH)	λmax^abs ([3]; MeOH) [nm]	λmax^em ([3]; MeOH) [nm]	λmax^abs ([3]; PBS) [nm]	λmax^em ([3]; PBS) [nm]	ε·10^-5 ([4]; MeOH)	ε·10^-5 [4, 6]	Φ (quantum efficiency of fluorescence) ([1]; PBS)	Sensitivity of record 635/ 670 ([5]; MeOH)	Sensitivity of record 655/ 690 ([5]; MeOH)	Sensitivity of record max/ max ([5]; MeOH)	Sensitivity of record 635/ 670 ([5]; PBS)	Sensitivity of record 655/ 690 ([5]; PBS)	Sensitivity of record max/ max ([5]; PBS)	molar extinction coefficient (ε) ([4]; in methanol) [M⁻¹ cm⁻¹]	water solubility [2]
CCN1C(=CC=CC=CC2=[N+](CCCCS(=O)(=O)[O-])c3ccc(C)cc3C2(C)CCCCC(=O)O)C(C)(C)c2ccccc21 (stereo not shown) [A4, 3-(4-Carboxybutyl)-N-(4-sulfobutyl)-3,3',3',5-tetramethyl-N'-ethylin:dodicarbpcyanine]	0.14	651	668	649	665	2.14±0.03	2.1 ± 0.03	0.10	0.243	0.143	0.381	0.162	0.054	0.255		
CC[N+]1=C(/C=C/C=C/C=C2/N(CCCCS(=O)(=O)[O-])c3ccc(C)cc3C2(C)CCCCC(=O)O)C(C)(C)c2cc(C)cc(C)c21 (stereo not shown) [A6, 3,3',3',5,5'.7'-hexamethyl-3-(4-carboxybutyl)-N-(4-sulfobutyl)-N'-ethylindodicarbocyanine]	0.11	654	672	656	676	2.13±0.03	1.82±0.03	0.07	0.151	0.198	0.292	0.089	0.085	0.170		
CC[N+]1=C(C=CC=CC=C2N(CCCCS(=O)(=O)[O-])c3ccccc3C2(C)C)C(C)(CCCCC(=O)O)c2ccccc21 (stereo not shown) [A8, 3-(4-carboxybutyl)-N'-(4-sulfobutyl)-3,3',3'-trimethyl-N-ethylindodicarbocyanine]	0.26	647	662	646	660	2.20±0.02	2.13±0.02	0.15	0.493	0.134	0.730	0.262	0.054	0.433	> 220000	
CC1(C)C(=CC=CC=CC2=[N+](CCCCS(=O)(=O)[O-])c3ccc(CCC(=O)O)cc3C2(C)C)N(CCCCS(=O)(=O)[O-])c2ccc(S(=O)(=O)[O-])cc21.[Na+].[Na+] [B7, N,N'-disulfobutyl-5-carboxyethyl-5'-sulfo-3,3,3',3'-tetramethylindodicarbocyanine, disodium salt]																very good water solubility

More lines, main results first:

Φ (quantum efficiency of fluorescence) ([1]; MeOH)	λmax^abs ([3]; MeOH) [nm]	λmax^em ([3]; MeOH) [nm]	λmax^abs ([3]; PBS) [nm]	λmax^em ([3]; PBS) [nm]	ε·10^-5 ([4]; MeOH)	ε·10^-5 [4, 6]	Φ (quantum efficiency of fluorescence) ([1]; PBS)	Sensitivity of record 635/ 670 ([5]; MeOH)	Sensitivity of record 655/ 690 ([5]; MeOH)	Sensitivity of record max/ max ([5]; MeOH)	Sensitivity of record 635/ 670 ([5]; PBS)	Sensitivity of record 655/ 690 ([5]; PBS)	Sensitivity of record max/ max ([5]; PBS)	molar extinction coefficient (ε) ([4]; in methanol) [M⁻¹ cm⁻¹]	Molecule	water solubility [2]
~0.3															5,5'-disulfo-N,N'-di(4-sulfobutyl)-3-(4-carboxybutyl)-3,3',3'-trimethylindodicarbocyanine, trisodium salt [A30]	very good water solubility
0.16	654	674	653	670	2.05±0.02	1.96±0.02	0.09	0.212	0.229	0.391	0.136	0.096	0.238		CCN1C(=CC=CC=CC2=[N+](CCCCS(=O)(=O)[O-])c3ccc(C)cc3C2(C)CCCCC(=O)O)C(C)(C)c2cc(C)ccc21 (stereo not shown) [A5, 3-(4-Carboxybutyl)-3,3',3',5,5'-pentamethyl-N-(4-sulfobutyl)-N'-ethylindodicarbocyanine]	
0.23	647	660	646	663	1.78±0.02	1.80±0.03	0.14	0.359	0.102	0.514	0.207	0.049	0.353		CCN1/C(=C/C=C/C=C/C2=[N+](CC)c3ccc(S(=O)(=O)[O-])cc3C2(C)C)C(C)(CCCCC(=O)O)c2ccccc21 (stereo not shown) [A7, N,N'-diethyl-3-(4-carboxybutyl)-5'-sulfo-3,3',3'-trimethylindodicarbocyanine]	
0.23	648	663	646	659	2.07±0.03	1.91±0.02	0.15	0.424	0.124	0.627	0.229	0.052	0.385		CCN1/C(=C/C=C/C=C/C2=[N+](CC)c3ccccc3C2(C)C)C(C)(CCCCC(=O)O)c2cc(S(=O)(=O)[O-])ccc21 (stereo not shown) [A9, N,N'-diethyl-3-(4-carboxybutyl)-5-sulfo-3,3',3'-trimethylindodicarbocyanine]	
